# From patent US12145914B2, “Compound having oxadiazole and pharmaceutical composition containing the same” (SK BIOPHARMACEUTICALS CO., LTD., priority 2018, dated 2024)
# Tested on: focal onset seizures induced by electrostimulation of 44 mA, 6 Hz, 3 sec in ICR mouse
# Experiment: 6 Hz method for screening anticonvulsants (6 Hz, 44 mA electrostimulation)
# Format: in vivo
# Conditions: male ICR mice, intraperitoneal (ip), electrostimulation 44 mA, 3 sec to the eye, number of non-seizure animals/number of animals used
# Excerpt: The utility of the compounds according to the present invention as an anticonvulsant agent has been investigated by the 6 Hz method, which has been well established as pharmacological screening methods of convulsant agents for focal onset seizures. The procedure of the 6 Hz method for screening anticonvulsant was as follows:
# 1) Preparation of Experimental Animals
# Male ICR mice are purchased from Orient Bio, Inc. of Korea, and are stored and managed according to laboratory animal management standards of the Institutional Animal Care and Use Committee (IACUC) by putting the same in a wire net cage under an environment in which an ambient temperature of 19 to 25° C., 40 to 60% relative humidity and 12 hour periods of light/dark were auto-controlled, and water was freely taken. After stabilization for a week, mice with a body weight of 18 to 23 g were used in the experiment.
# 2) Evaluation of the Anticonvulsant Effect of a Compound
# 5% Tetracaine (Sigma) was added to both eyes to provide a local anesthetic effect at 5 to 10 minutes before the period of electrical stimulation at the animal ICR mouse. The compounds to be tested were dissolved in distilled water in which 30% polyethylene glycol 300+5% dimethylsulfoxide+5% Cremophor was dissolved and administered intraperitoneally (ip) to the animal at a dosage volume of 10 mL/kg. Then, electrostimulation of 44 mA, 6 Hz, and 3 sec was applied to the eye to induce focus-generating seizures. After the electrical stimulation, the presence of seizures due to drug effects was confirmed, and the ratio of animals showing no seizures was expressed as a protection rate (the number of non-seizure animals/the number of animals used in experiments=protection rate). […]
row,SMILES,"6 Hz, 44 mA protection rate"
1,"Cc1nnc(CC(OC(N)=O)c2cccc(-c3ccc(F)cc3)c2)o1 (stereo not drawn) [Example 72, [1-[3-(4-fluorophenyl)phenyl]-2-(5-methyl-1,3,4-oxadiazol-2-yl)ethyl] carbamate]",+ (0.2 to 0.6 are scored as ‘+’)
2,"Cc1nnc(CC(OC(N)=O)c2cccc(-c3ccc(Cl)cc3)c2)o1 (stereo not drawn) [Example 75, [1-[3-(4-chlorophenyl)phenyl]-2-(5-methyl-1,3,4-oxadiazole-2-yl)ethyl] carbamate]",+ (0.2 to 0.6 are scored as ‘+’)
3,"Cc1nnc(CC(OC(N)=O)c2cccc(-c3ccc(OC(F)(F)F)cc3)c2)o1 (stereo not drawn) [Example 78, [1-[3-[4-(trifluoromethoxy)phenyl]phenyl]-2-(5-methyl-1,3,4-oxadiazol-2-yl)ethyl] carbamate]",++ (0.6 to 0.8 are scored as ‘++’)
4,"Nc1nnc(-c2cccc(Cl)c2Cl)c(N)n1 [Lamotrigine, reference compound]",− (the protection rates 0 to 0.2 are scored as ‘−’)
5,"CC[C@@H](C(N)=O)N1CCCC1=O [Levitiracetam, (S)-α-ethyl-2-oxo-1-pyrrolidine acetamide, reference compound]",− (the protection rates 0 to 0.2 are scored as ‘−’)
6,"CC1(C)O[C@@H]2[C@@H](CO[C@@]3(COS(N)(=O)=O)OC(C)(C)O[C@@H]23)O1 [Topiramate, reference compound]",− (the protection rates 0 to 0.2 are scored as ‘−’)
